According to patent US4973578A, “Synthetic peptides derived from the alpha-subunit of human lycoprotein hormones” (Mayo Foundation for Medical Education and Research, priority 1988, dated 1990):
Where “and” joins values, the source holds several entries; their conditions need not be identical. Equal entries are not always repeated. Residues, ends and D or L forms follow the SMILES beside them.

Columns and labels:
[1] = biological target: T1, TSH receptor on human thyroid membranes (Homo sapiens, UniProt P16473); experiment: TSH radioreceptor assay: inhibition of 125I-bTSH binding to human thyroid membrane preparations
T1 construct: Thyroid tissue obtained at surgery from patients with Graves' disease was prepared as described by Takahashi et al; from tissue; host or cells: human thyroid tissue from Graves' disease patients, 2000xg membrane fraction
Experimental: Thyroid tissue obtained at surgery from patients with Graves' disease was prepared as described by Takahashi et al., J. Clin. Endocrinol. Metab. 47:870 (1978), the disclosure of which is incorporated herein. Briefly, the tissue was dissected free of fibrous material, minced with scissors, and homogenized with Polytron homogenizer. The 2000×g fraction was collected by centrifugation, washed and resuspended in 40 mM Tris, 0.1% Bovine Serum Albumin (BSA) pH 7.4 at a concentration of 100 mg equivalents of wet tissue per milliliter. The preparation was stored at -70° C. until used for assay.
Highly purified bovine TSH (30 IU/mg, supplied by Dr. J. G. Pierce, UCLA) was radio-iodinated (Na^125 I, Amersham, Chicago) by a gentle lactoperoxidase procedure described by Takahashi et al., supra, then purified by Sephadex G-100 chromatography.
The membrane assay incubation mixture consisted of […] of the 2000×g membrane fraction, 0.125 ng ^125 I bTSH (approximately 20,000 cpm, 5×10^-12 M), 100 ul of 1% Triton X-100 and noted amounts of test materials in a final volume of 0.5 ml of 40 mM Tris-HCl pH 7.4 plus 0.1% BSA. Nonspecific binding was determined by addition of excess unlabeled bTSH (200 mU/ml, Sigma, St. Louis). After 2 hrs incubation at 25° C., 200 ul of 5 mg/ml bovine gamma globulin and 1 ml 30% polyethylene glycol 6000 (Baker, Phillipsburg, N.J.) in 1M NaCl was added to each tube and the tubes centrifuged at 4000 rpm for 25 minutes. The supernatants were aspirated and pellets counted in a gamma counter. Specific binding averaged 25% of total counts.
FIG. 1 reports 5×10^-12 M labeled bTSH incubated with 10 mg equivalents (wet weight) of 2000×g fraction of thyroid membranes with varying concentrations of unlabeled TSH or synthetic α-subunit peptides. Nonspecific binding was determined in the presence of excess unlabeled TSH.

[2] = tested on: thyroid stimulating immunoglobulin (TSI) stimulated cAMP in FRTL-5 cells; experiment: TSI bioassay: inhibition of thyroid stimulating immunoglobulin activity (PEG-precipitated patient immunoglobulin) in FRTL-5 cells; type: cell-based, rat; conditions: for Percent inhibition of TSI activity, mean: mean of patient samples tested
Description: Ten patients (8 women and 2 men) with Graves' disease and high levels of TSI were identified after evaluation by FRTL-5 cell bioassay in the clinical chemistry laboratory. (FRTL-5 bioassay described below employing known TSH receptor recognition of various species hormones) Consecutive samples that had indices greater than 15 and sufficient serum remaining for further evaluation were chosen. Seven of the 10 had serum thyroxine values above the normal range and 9 of 10 had TSH levels below the euthyroid range by sensitive immunoradiometric assay [Boots-Celltech Sucrosep, Berkshire, UK, conducted as described in Klee and Hay, J. Clin. Endocrinol. Metab., 64:461 (1987)]. (FIG. 5). For comparison serum from 13 normal subjects was examined for TSI at the same serum dilution as the patient sera. (FIG. 5).
FRTL-5 cells were maintained in Ham's F-12 medium supplemented with 5% calf serum and a 6-hormone preparation (6H) as described by Ambesi-Impiombato, supra. The cells were removed from flasks enzymatically, plated at 150,000 cells per well in 24 well plates, and grown in 6H medium for 4 days. The medium was then replaced with fresh medium supplemented with insulin only (1H) for 7 days prior to assay. The bioassay was a modification of that described by Kasagi et al., supra. Briefly, immunoglobulins were precipitated from 2 ml of serum with 6 ml 20% polyethylene glycol 6000 (Baker, Phillipsburg, N.J.), centrifuged at 2800×g for 20 minutes, and then reconstituted in 2.4 ml buffer (NaCl-free Hanks balanced salt solution, NaCl-free HBSS), containing 1 mM iso-butyl-methyl-xanthine (IBMX, Sigma, St. Louis) and 1.5% BSA. After washing the cells with HBSS, 150 ul of buffer was added to the wells plus varying concentrations of synthetic α-subunit peptides followed immediately by 150 ul of the crude immunoglobulin extract. The plates were incubated for 2 hours at 37° C., 5% CO2 after which 100 ul of medium was removed and diluted in 900 ul 50 mM sodium acetate buffer, pH 6.2. cAMP content was determined by radioimmunoassay using the procedures described in Wray and Glinos, supra and Steiner et al., supra. Basal cAMP levels were determined in the absence of immunoglobulin extract and synthetic peptides for each plate. Basal and maximum levels were determined in quadruplicate; peptide effects were measured in duplicate at each concentration.
Percent increase in cAMP levels over basal was calculated as below: [formula]
Percent inhibition of TSI activity by the synthetic α-subunit peptides was calculated as follows: [formula]
cAMP levels in the presence of synthetic peptides were compared to maximum levels using student's T test for paired samples. Mean percent inhibition between different peptides were compared with student's T test for independent samples. Correlations were determined by Pearson's R.

T1 sequence (P16473 21-764): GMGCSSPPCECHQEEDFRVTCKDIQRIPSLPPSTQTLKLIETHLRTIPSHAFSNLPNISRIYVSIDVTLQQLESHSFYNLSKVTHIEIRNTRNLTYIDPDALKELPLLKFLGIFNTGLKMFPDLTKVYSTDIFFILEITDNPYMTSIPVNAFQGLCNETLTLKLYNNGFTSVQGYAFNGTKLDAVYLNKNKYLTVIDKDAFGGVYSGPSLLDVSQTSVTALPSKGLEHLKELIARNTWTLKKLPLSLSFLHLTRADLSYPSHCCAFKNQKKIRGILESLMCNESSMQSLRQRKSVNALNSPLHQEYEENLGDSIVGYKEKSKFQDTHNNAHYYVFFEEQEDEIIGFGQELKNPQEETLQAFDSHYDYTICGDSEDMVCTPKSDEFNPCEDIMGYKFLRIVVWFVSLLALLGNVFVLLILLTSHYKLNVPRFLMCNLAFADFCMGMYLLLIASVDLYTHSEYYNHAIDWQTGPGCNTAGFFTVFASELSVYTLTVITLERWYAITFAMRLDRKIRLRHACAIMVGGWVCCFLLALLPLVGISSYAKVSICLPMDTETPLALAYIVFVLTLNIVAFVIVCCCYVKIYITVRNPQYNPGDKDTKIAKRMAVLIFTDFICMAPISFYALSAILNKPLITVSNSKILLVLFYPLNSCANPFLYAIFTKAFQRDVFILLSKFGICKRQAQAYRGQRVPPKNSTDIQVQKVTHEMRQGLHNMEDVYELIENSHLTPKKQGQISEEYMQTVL

CSCC[C@H](NC(=O)[C@H](CS)NC(=O)[C@H](CCC(N)=O)NC(=O)[C@@H](N)CC(C)C)C(=O)NCC(=O)N[C@@H](CS)C(=O)N[C@@H](CS)C(=O)N[C@@H](Cc1ccccc1)C(=O)N[C@@H](CO)C(=O)N[C@@H](CCCNC(=N)N)C(=O)N[C@@H](C)C(=O)N[C@@H](Cc1ccc(O)cc1)C(=O)N1CCC[C@H]1C(=O)N[C@H](C(=O)N1CCC[C@H]1C(=O)N[C@@H](CC(C)C)C(=O)N[C@@H](CCCNC(=N)N)C(=O)N[C@@H](CO)C(=O)N[C@@H](CCCCN)C(=O)N[C@@H](CCCCN)C(=O)N[C@H](C(N)=O)[C@@H](C)O)[C@@H](C)O [α26-46, Leu--Gln--Cys--Met--Gly--Cys--Cys--Phe--Ser--Arg--Ala--Tyr--Pro--Thr--Pro--Leu--Arg--Ser--Lys--Lys--Thr--(NH2)] (H-LQCMGCCFSRAYPTPLRSKKT-NH2)
displacement of 125I-bTSH label ([1]; at concentrations greater than 1×10^-5 m, FIG. 1): more than 80%
IC50 ([1]; human thyroid membrane homogenates, ± S.E., read-out: bTSH ED50 (effective dose necessary to inhibit binding of 125I-bTSH by 50%)): 10.8 ± 0.3 µM
inhibition of 125I-bTSH binding, result in words ([1]; human thyroid membranes, FIG. 1): dose dependent inhibition
patient samples in which peptide showed an inhibitory effect / lowered cAMP levels ([2]; Graves' disease patient samples): 10 of 10
Percent inhibition of TSI activity ([2]; Pt. sample A, peptide 66.7 ug/ml): 62.1%
Percent inhibition of TSI activity ([2]; Pt. sample A, peptide 133 ug/ml): 125.3±3% and 125.3%
Percent inhibition of TSI activity ([2]; Pt. sample B, peptide 66.7 ug/ml): 14.3%
Percent inhibition of TSI activity ([2]; Pt. sample B, peptide 133 ug/ml): 125.0%
Percent inhibition of TSI activity ([2]; Pt. sample C, peptide 66.7 ug/ml): 29.1%
Percent inhibition of TSI activity ([2]; Pt. sample C, peptide 133 ug/ml): 86.4%
Percent inhibition of TSI activity ([2]; Pt. sample D, peptide 66.7 ug/ml): 9.1%
Percent inhibition of TSI activity ([2]; Pt. sample D, peptide 133 ug/ml): 85.7%
Percent inhibition of TSI activity ([2]; Pt. sample E, peptide 66.7 ug/ml): 42.0%
Percent inhibition of TSI activity ([2]; Pt. sample E, peptide 133 ug/ml): 85.9%
Percent inhibition of TSI activity ([2]; Pt. sample F, peptide 66.7 ug/ml): 19.8%
Percent inhibition of TSI activity ([2]; Pt. sample F, peptide 133 ug/ml): 57.8%
Percent inhibition of TSI activity ([2]; Pt. sample G, peptide 66.7 ug/ml): 43.1%
Percent inhibition of TSI activity ([2]; Pt. sample G, peptide 133 ug/ml): 77.2%
Percent inhibition of TSI activity ([2]; Pt. sample H, peptide 66.7 ug/ml): 14.7%
Percent inhibition of TSI activity ([2]; Pt. sample H, peptide 133 ug/ml): 52.5%
Percent inhibition of TSI activity ([2]; Pt. sample I, peptide 66.7 ug/ml): 4.2%
Percent inhibition of TSI activity ([2]; Pt. sample I, peptide 133 ug/ml): 38±9.7% and 38.0%
Percent inhibition of TSI activity ([2]; Pt. sample J, peptide 66.7 ug/ml): 36.0%
Percent inhibition of TSI activity ([2]; Pt. sample J, peptide 133 ug/ml): 57.7%
Percent inhibition of TSI activity, mean ([2]; peptide 66.7 ug/ml): 27.5%
Percent inhibition of TSI activity, mean ([2]; peptide 133 ug/ml): 79.1±8.8% and 79.1%
patient Ig samples with statistically significant inhibition of cAMP ([2]; peptide 133 ug/ml): 10
